Assay: xn = mol fraction of the nth substance listed, in the solute-free solvent

Cc1c(Br)c(=O)n(C2CCCC2)c2nc(Cl)ncc12 + CC1=CC(=O)CC(C)(C)C1 + CC(C)O
solubility (g/100 g solution)
Conditions | 278.15 K | 283.15 K | 288.15 K | 293.15 K | 298.15 K | 303.15 K | 308.15 K | 313.15 K | 318.15 K | 323.15 K
x2 = 0.1 | 0.104 | 0.147 | 0.203 | 0.285 | 0.388 | 0.522 | 0.702 | 0.929 | 1.27 | 1.59
x2 = 0.2 | 0.167 | 0.234 | 0.327 | 0.45 | 0.61 | 0.819 | 1.09 | 1.43 | 1.87 | 2.42
x2 = 0.3 | 0.232 | 0.325 | 0.45 | 0.614 | 0.828 | 1.11 | 1.47 | 1.92 | 2.49 | 3.21
x2 = 0.4 | 0.288 | 0.401 | 0.554 | 0.752 | 1.02 | 1.35 | 1.79 | 2.33 | 3.02 | 3.87
x2 = 0.5 | 0.332 | 0.458 | 0.633 | 0.862 | 1.16 | 1.54 | 2.03 | 2.65 | 3.43 | 4.39
x2 = 0.6 | 0.364 | 0.506 | 0.697 | 0.947 | 1.27 | 1.69 | 2.23 | 2.9 | 3.75 | 4.8
x2 = 0.7 | 0.391 | 0.543 | 0.746 | 1.01 | 1.37 | 1.82 | 2.39 | 3.12 | 4.02 | 5.14
x2 = 0.8 | 0.416 | 0.579 | 0.796 | 1.08 | 1.45 | 1.93 | 2.54 | 3.32 | 4.28 | 5.48
x2 = 0.9 | 0.441 | 0.613 | 0.844 | 1.15 | 1.54 | 2.05 | 2.7 | 3.52 | 4.55 | 5.82

Source: the CheMixHub drug solubility set
